From the NIST ThermoML archive (doi:10.1021/je500395f)
Numbers after ± are expanded uncertainties.

Conditions: Fluid (supercritical or subcritical phases), Coaxial cylinder method

CCC [propane]
Conditions	thermal conductivity [W/m/K]
373.2 K, 4574 kPa	0.0745 ± 0.0029
373.2 K, 4590 kPa	0.0724 ± 0.0028
373.2 K, 4605 kPa	0.07168 ± 0.0028
373.2 K, 4610 kPa	0.07119 ± 0.0027
373.2 K, 4640 kPa	0.06975 ± 0.0027
373.2 K, 4660 kPa	0.06887 ± 0.0027
373.2 K, 4680 kPa	0.06797 ± 0.0026
373.2 K, 4740 kPa	0.06707 ± 0.0026
373.2 K, 4900 kPa	0.06613 ± 0.0026
373.2 K, 5100 kPa	0.06615 ± 0.0026
373.2 K, 5540 kPa	0.06698 ± 0.0026
373.2 K, 6300 kPa	0.06878 ± 0.0027
373.2 K, 6700 kPa	0.06932 ± 0.0027
373.2 K, 7400 kPa	0.07086 ± 0.0027
373.2 K, 7780 kPa	0.07152 ± 0.0027
373.2 K, 8900 kPa	0.0735 ± 0.0028
373.2 K, 10500 kPa	0.0764 ± 0.0029
373.2 K, 11900 kPa	0.07818 ± 0.003
374.28 K, 2900 kPa	0.03164 ± 0.0015
374.28 K, 3087 kPa	0.03271 ± 0.0015
374.28 K, 3424 kPa	0.03453 ± 0.0016
374.28 K, 3945 kPa	0.03887 ± 0.0017
374.28 K, 3975 kPa	0.03918 ± 0.0017
374.28 K, 4080 kPa	0.0412 ± 0.0018
374.28 K, 4200 kPa	0.04376 ± 0.0019
374.28 K, 4280 kPa	0.04558 ± 0.0019
374.28 K, 4320 kPa	0.04719 ± 0.002
374.28 K, 4380 kPa	0.04961 ± 0.0021
374.28 K, 4425 kPa	0.05238 ± 0.0022
374.28 K, 4440 kPa	0.05378 ± 0.0022
374.28 K, 4450 kPa	0.05483 ± 0.0023
374.28 K, 4460 kPa	0.05626 ± 0.0023
374.28 K, 4475 kPa	0.05823 ± 0.0024
374.28 K, 4485 kPa	0.0596 ± 0.0025
374.28 K, 4510 kPa	0.06324 ± 0.0026
374.28 K, 4515 kPa	0.06424 ± 0.0027
374.28 K, 4518 kPa	0.06502 ± 0.0027
374.28 K, 4520 kPa	0.06551 ± 0.0027
374.28 K, 4535 kPa	0.06874 ± 0.0027
374.28 K, 4545 kPa	0.07123 ± 0.0028
374.28 K, 4550 kPa	0.07267 ± 0.0028
374.28 K, 4560 kPa	0.07525 ± 0.0029
374.28 K, 4565 kPa	0.07664 ± 0.0029
374.28 K, 4570 kPa	0.07786 ± 0.003
374.28 K, 4575 kPa	0.07875 ± 0.003
374.28 K, 4580 kPa	0.07954 ± 0.003
374.28 K, 4585 kPa	0.08016 ± 0.003
374.28 K, 4590 kPa	0.08076 ± 0.0031
374.28 K, 4595 kPa	0.08112 ± 0.0031
374.28 K, 4600 kPa	0.08148 ± 0.0031
374.28 K, 4605 kPa	0.0816 ± 0.0031
374.28 K, 4610 kPa	0.08117 ± 0.0031
374.28 K, 4615 kPa	0.08036 ± 0.003
374.28 K, 4620 kPa	0.07961 ± 0.003
374.28 K, 4625 kPa	0.07854 ± 0.003
374.28 K, 4630 kPa	0.07755 ± 0.0029
374.28 K, 4640 kPa	0.07599 ± 0.0029
374.28 K, 4650 kPa	0.07477 ± 0.0029
374.28 K, 4670 kPa	0.07334 ± 0.0028
374.28 K, 4685 kPa	0.0724 ± 0.0028
374.28 K, 4710 kPa	0.07096 ± 0.0027
374.28 K, 4720 kPa	0.07026 ± 0.0027
374.28 K, 4740 kPa	0.06979 ± 0.0027
374.28 K, 4760 kPa	0.06909 ± 0.0027
374.28 K, 4780 kPa	0.06868 ± 0.0027
374.28 K, 4820 kPa	0.06778 ± 0.0026
374.28 K, 4900 kPa	0.06693 ± 0.0026
374.28 K, 5000 kPa	0.06603 ± 0.0026
374.28 K, 5200 kPa	0.06584 ± 0.0026
374.28 K, 5500 kPa	0.06645 ± 0.0026
374.28 K, 5798 kPa	0.06707 ± 0.0026
374.28 K, 6323 kPa	0.06829 ± 0.0027
374.28 K, 6760 kPa	0.06867 ± 0.0027
375.1 K, 3780 kPa	0.03695 ± 0.0017
375.1 K, 3790 kPa	0.03732 ± 0.0017
375.1 K, 3794 kPa	0.03755 ± 0.0017
375.1 K, 4210 kPa	0.04276 ± 0.0018
375.1 K, 4300 kPa	0.04526 ± 0.0019
375.1 K, 4315 kPa	0.04587 ± 0.0019
375.1 K, 4350 kPa	0.04739 ± 0.002
375.1 K, 4400 kPa	0.04912 ± 0.002
375.1 K, 4450 kPa	0.05149 ± 0.0021
375.1 K, 4510 kPa	0.05552 ± 0.0023
375.1 K, 4520 kPa	0.05654 ± 0.0023
375.1 K, 4525 kPa	0.0572 ± 0.0023
375.1 K, 4535 kPa	0.05845 ± 0.0024
375.1 K, 4545 kPa	0.05974 ± 0.0024
375.1 K, 4550 kPa	0.06052 ± 0.0025
375.1 K, 4555 kPa	0.06115 ± 0.0025
375.1 K, 4560 kPa	0.06195 ± 0.0025
375.1 K, 4565 kPa	0.06257 ± 0.0026
375.1 K, 4570 kPa	0.06325 ± 0.0026
375.1 K, 4575 kPa	0.06422 ± 0.0026
375.1 K, 4580 kPa	0.06509 ± 0.0026
375.1 K, 4585 kPa	0.06611 ± 0.0027
375.1 K, 4590 kPa	0.06706 ± 0.0027
375.1 K, 4595 kPa	0.06795 ± 0.0027
375.1 K, 4600 kPa	0.06877 ± 0.0027
375.1 K, 4605 kPa	0.06965 ± 0.0028
375.1 K, 4610 kPa	0.07049 ± 0.0028
375.1 K, 4620 kPa	0.07215 ± 0.0028
375.1 K, 4625 kPa	0.07291 ± 0.0028
375.1 K, 4630 kPa	0.07371 ± 0.0029
375.1 K, 4635 kPa	0.07453 ± 0.0029
375.1 K, 4640 kPa	0.07507 ± 0.0029
375.1 K, 4645 kPa	0.07542 ± 0.0029
375.1 K, 4650 kPa	0.07583 ± 0.0029
375.1 K, 4655 kPa	0.07611 ± 0.0029
375.1 K, 4660 kPa	0.07639 ± 0.0029
375.1 K, 4665 kPa	0.07653 ± 0.0029
375.1 K, 4670 kPa	0.07625 ± 0.0029
375.1 K, 4675 kPa	0.07597 ± 0.0029
375.1 K, 4680 kPa	0.07569 ± 0.0029
375.1 K, 4685 kPa	0.07544 ± 0.0029
375.1 K, 4695 kPa	0.07466 ± 0.0029
375.1 K, 4700 kPa	0.07412 ± 0.0028
375.1 K, 4710 kPa	0.07346 ± 0.0028
375.1 K, 4720 kPa	0.07261 ± 0.0028
375.1 K, 4740 kPa	0.07111 ± 0.0027
375.1 K, 4750 kPa	0.07062 ± 0.0027
375.1 K, 4770 kPa	0.06965 ± 0.0027
375.1 K, 4790 kPa	0.06852 ± 0.0027
375.1 K, 4800 kPa	0.06807 ± 0.0026
375.1 K, 4850 kPa	0.06676 ± 0.0026
375.1 K, 4890 kPa	0.06599 ± 0.0026
375.1 K, 4920 kPa	0.06554 ± 0.0026
